Experimental data from publication PMC8920630 (Evidence-based Complementary and Alternative Medicine : eCAM, 2022).
Like-named read-outs stand apart in the source and are kept apart here.

Assays:
[1] = design: method as in PMID 27992940; settings: cited from earlier work
[2] = tested on: primary porcine brain endothelial cells (PBECs); settings: cited from earlier work
[3] = PAMPA-BBB, prediction of CNS permeability; settings: for Prediction of CNS penetration: class from experimental Pe, limits of Di et al., 2003
[4] = in vitro; settings: PAMPA

## Madecassoside
[1]
  Apparent oral bioavailability: less than 1%
[2]; primary porcine brain endothelial cells (PBECs)
  BBB permeability in in vitro BBB model: highly BBB permeable
[3]; PBS: DMSO (95 : 5), 18 h, mean ± SEM
  PAMPA-BBB (Pe) Experimental permeability: 0.26 ± 0.7 10^−6 cm s^−1
[3]
  Prediction of CNS penetration: CNS− (CNS−, low BBB permeation predicted; Pe, 10–6 cm s^−1 < 2.0)

## CCn1cc(C(=O)O)c(=O)c2cc(F)c(N3CCNCC3)nc21 [Enoxacin]
[3]
  Prediction of CNS penetration: CNS− (CNS−, low BBB permeation predicted; Pe, 10–6 cm s^−1 < 2.0)

## C[C@H]1[C@H](C)CC[C@]2(C(=O)O)CC[C@]3(C)C(=CC[C@@H]4[C@@]5(C)C[C@@H](O)[C@H](O)[C@@](C)(CO)[C@@H]5[C@H](O)C[C@]43C)[C@H]12 [Madecassic acid]
[4]
  Papp: 0.27 ± 0.3 ×10⁻⁶ cm/s
[3]
  Prediction of CNS penetration: CNS− (CNS−, low BBB permeation predicted; Pe, 10–6 cm s^−1 < 2.0)

## C[C@H]1[C@H](C)CC[C@]2(C(=O)O)CC[C@]3(C)C(=CC[C@@H]4[C@@]5(C)C[C@@H](O)[C@H](O)[C@@](C)(CO)[C@@H]5CC[C@]43C)[C@H]12 [Asiatic acid]
[4]
  Papp at 18 h: 0.3 ± 0.3 ×10⁻⁶ cm/s
[2]
  BBB permeability in in vitro BBB model: highly BBB permeable
[3]
  Prediction of CNS penetration: CNS− (CNS−, low BBB permeation predicted; Pe, 10–6 cm s^−1 < 2.0)
